{"source": "patent US20250161340A1", "about": "“COMPOSITION FOR PREVENTING, ALLEVIATING OR TREATING DRY EYE SYNDROME OR MEIBOMIAN GLAND DYSFUNCTION” (SEOUL NATIONAL UNIVERSITY HOSPITAL, priority 2022, published 2025)", "key": {"[1]": {"test_system": "dry eye syndrome mouse models undergoing desiccating stress (BALB/c mice)", "experiment": "Desiccating stress dry eye syndrome mouse model: corneal epithelial defects (Lissamine green) and tear secretion (phenol red thread)", "assay_type": "in vivo", "conditions": "8-week-old BALB/c mice, vs PBS", "protocol": "Two types of dry eye syndrome mouse models were used to examine whether 1,5DQ instillation is effective for dry eye syndrome. The first mouse model is a desiccating stress model, and BALB/c mice were reared in a dry environment (humidity: 20 to 30%) while administering a drug that suppresses tear secretion (scopolamine hydrobromide 0.5 mg/0.2 mL) intraperitoneally three times a day. The second mouse model is a Sjögren's syndrome-related inflammatory dry eye syndrome mouse model, and NOD.B10.H2^b mice were used. […]\n(§1) In each of the two types of dry eye syndrome mouse models, the dry eye treatment effect of 1,5DQ instillation was investigated. The degree of corneal epithelial defects was measured by instilling a drop of the Lissamine green vital dye on the cornea and then observing the degree of stained corneal epithelial defects under a microscope and clinical scoring the same. The amount of tear secretion was evaluated by placing a thread soaked with a phenol red dye on the outer canthus of the mouse for 1 minute and measuring the length moistened by tears (length of the dyed area).\n8-week-old BALB/c mice undergoing desiccating stress were divided into two groups, and (i) 5 μL of 1,5DQ (50 μg/μL) or (ii) 5 μL of PBS was instilled into both eyes of each mouse twice a day for 5 days, and then the degree of corneal epithelial defects and the amount of tear secretion were evaluated."}, "[2]": {"test_system": "Sjögren's syndrome-related inflammatory dry eye syndrome mouse models (NOD.B10.H2^b mice)", "experiment": "Sjögren's syndrome-related inflammatory dry eye syndrome mouse model: corneal epithelial defects and tear secretion", "assay_type": "in vivo", "conditions": "for corneal epithelial defects: vs PBS or 5 μg/μL", "protocol": "Two types of dry eye syndrome mouse models were used to examine whether 1,5DQ instillation is effective for dry eye syndrome. The first mouse model is a desiccating stress model, and BALB/c mice were reared in a dry environment (humidity: 20 to 30%) while administering a drug that suppresses tear secretion (scopolamine hydrobromide 0.5 mg/0.2 mL) intraperitoneally three times a day. The second mouse model is a Sjögren's syndrome-related inflammatory dry eye syndrome mouse model, and NOD.B10.H2^b mice were used. In the NOD.B10.H2^b mice, under normal environments, inflammation in the lacrimal glands and on the ocular surface spontaneously increases at about 11 weeks, leading to destruction of the lacrimal glands and ocular surface, decreased tear secretion, and severe dry eye syndrome accompanied by ocular surface epithelial defects progresses between 11 and 14 weeks.\nas §1\nAs described above, as Sjögren's syndrome-related inflammatory dry eye syndrome mice, NOD.B10.H2^b mice were used. 12-week-old mice were divided into two groups, and (i) 5 μL of 1,5DQ (50 μg/μL) or (ii) 5 μL of PBS was instilled into both eyes of each mouse twice a day for 5 days, and then the degree of corneal epithelial defects and the amount of tear secretion were evaluated.\nAccordingly, the dry eye syndrome treatment effect according to the 1,5DQ treatment concentration was investigated. 12-week-old NOD.B10.H2^b mice (Sjögren's syndrome-related inflammatory dry eye syndrome mouse models) were divided into four groups, and (i) 5 μL of PBS, (ii) 5 μL of 1,5DQ (5 μg/μL), (iii) 5 μL of 1,5DQ (50 μg/μL), or (iv) 5 μL of 1,5DQ (500 μg/μL) was instilled into both eyes twice a day for 5 days, and then the degree of corneal epithelial defects and the amount of tear secretion were evaluated."}, "[3]": {"test_system": "tumor necrosis factor-α (TNF-α)", "experiment": "TNF-α transcripts in eyelids (meibomian glands) by real-time RT PCR, Sjögren's syndrome-related model", "assay_type": "in vivo, mouse", "conditions": "12-week-old NOD.B10.H2^b mice; 5 μL of 1,5DQ (50 μg/μL) twice a day for 5 days; vs PBS", "protocol": "(§2) 12-week-old NOD.B10.H2^b mice were divided into two groups, and (i) 5 μL of 1,5DQ (50 μg/μL) or (ii) 5 μL of PBS was instilled into both eyes of each mouse twice a day for 5 days. The degree of inflammation activation in the eyelids was evaluated by measuring the levels of transcripts of the inflammatory cytokines IL-6 and tumor necrosis factor-α (TNF-α), and another inflammatory factor, matrix metallopeptidase 9 (MMP-9), using real-time RT PCR."}, "interleukin 1β (IL-1β)": {"test_system": "interleukin 1β (IL-1β)", "experiment": "IL-1β transcripts in lacrimal glands by real-time RT PCR, desiccating stress model", "assay_type": "in vivo, mouse", "conditions": "BALB/c mice, 5 μL of 1,5DQ (50 μg/μL) twice a day for 5 days, vs PBS", "protocol": "Desiccating stress-induced 8-week-old BALB/c mice were divided into two groups, and (i) 5 μL of 1,5DQ (50 μg/μL) or (ii) 5 μL of PBS was instilled into both eyes of each mouse twice a day for 5 days. The lacrimal glands of a mouse were classified into an extraorbital lacrimal gland and an intraorbital lacrimal gland, and the degree of inflammatory activation in each lacrimal gland was evaluated by measuring the levels of transcripts of inflammatory cytokine interleukin 1β (IL-1β) using real-time RT PCR."}, "[4]": {"test_system": "CD3-positive immune cells", "experiment": "CD3 immunostaining of lacrimal glands, Sjögren's syndrome-related model", "assay_type": "in vivo, mouse", "conditions": "12-week-old NOD.B10.H2^b mice; 5 μL of 1,5DQ (50 μg/μL) twice a day for 5 days; vs PBS", "protocol": "Sjögren's syndrome-related inflammatory dry eye syndrome mice, i.e., NOD.B10.H2^b mice, typically show increased infiltration of inflammatory cells into the lacrimal glands between 11 to 14 weeks old. 12-week-old NOD.B10.H2^b mice were divided into two groups, and (i) 5 μL of 1,5DQ (50 μg/μL) or (ii) 5 μL of PBS was instilled into both eyes of each mouse twice a day for 5 days, and then the level of inflammatory cell infiltration in the lacrimal glands was evaluated. In addition, the extraorbital and intraorbital lacrimal glands, which had been removed from each mouse and sectioned, were immunostained with CD3, T cells were observed using the stained CD3 under a microscope (FIGS. 4A and 4B) and counted, and then the level of immune cell infiltration in the lacrimal glands was quantified (FIG. 4C)."}, "[5]": {"test_system": "human corneal epithelial cells", "experiment": "MTT cell viability of corneal epithelial cells, normal or hyperosmotic environment", "assay_type": "cell-based", "conditions": "24 hours", "protocol": "Corneal epithelial cells primarily cultured from human corneal limbal cells were treated with 100 mM NaCl for exposure to a hyperosmotic environment, and treated with 0, 10, 25, 50, or 100 μg/mL of 1,5DQ for 24 hours, and then cell viability was evaluated through MTT assay."}, "IL-6": {"test_system": "IL-6", "experiment": "IL-6 transcripts in eyelids (meibomian glands) by real-time RT PCR, Sjögren's syndrome-related model", "assay_type": "in vivo, mouse", "conditions": "12-week-old NOD.B10.H2^b mice; 5 μL of 1,5DQ (50 μg/μL) twice a day for 5 days; vs PBS", "protocol": "as §2"}, "[6]": {"test_system": "matrix metallopeptidase 9 (MMP-9)", "experiment": "MMP-9 transcripts in eyelids (meibomian glands) by real-time RT PCR, Sjögren's syndrome-related model", "assay_type": "in vivo, mouse", "conditions": "12-week-old NOD.B10.H2^b mice; 5 μL of 1,5DQ (50 μg/μL) twice a day for 5 days; vs PBS", "protocol": "as §2"}, "[7]": {"test_system": "stearoyl-CoA desaturase (SCD) 1", "experiment": "SCD1 transcription in eyelids by real-time RT PCR", "assay_type": "in vivo, mouse", "conditions": "12-week-old NOD.B10.H2^b mice; 5 μL of 1,5DQ (50 μg/μL) twice a day for 5 days; vs PBS", "protocol": "(§3) 12-week-old NOD.B10.H2^b mice were divided into two groups, and (i) 5 μL of 1,5DQ (50 μg/μL) or (ii) 5 μL of PBS was instilled into both eyes of each mouse twice a day for 5 days. After removing the lower and upper eyelids of each mouse model, the expression level of meibomian gland differentiation factors in the eyelids was determined using real-time RT PCR. The meibomian glands are composed of sebocytes, and the transcription levels of stearoyl-CoA desaturase (SCD) 1 and SCD3, which are sebocyte-specific genes, were measured."}, "meibomian glands": {"test_system": "meibomian glands", "experiment": "Area of eyelid meibomian glands, Sjögren's syndrome-related model", "assay_type": "in vivo, mouse", "conditions": "12-week-old NOD.B10.H2^b mice; 5 μL of 1,5DQ (50 μg/μL) twice a day for 5 days; vs PBS", "protocol": "12-week-old NOD.B10.H2^b mice were divided into two groups, and (i) 5 μL of 1,5DQ (50 μg/μL) or (ii) 5 μL of PBS was instilled into both eyes of each mouse twice a day for 5 days. The area of the meibomian glands was confirmed by removing an eyelid from the mouse model and then measuring the area of 3 mm at the center."}, "SCD3": {"test_system": "SCD3", "experiment": "SCD3 transcription in eyelids by real-time RT PCR", "assay_type": "in vivo, mouse", "conditions": "12-week-old NOD.B10.H2^b mice; 5 μL of 1,5DQ (50 μg/μL) twice a day for 5 days; vs PBS", "protocol": "as §3"}, "[8]": {"test_system": "human corneal epithelial cells", "experiment": "Apoptosis of corneal epithelial cells by annexin V/PI flow cytometry, hyperosmotic environment", "assay_type": "cell-based", "conditions": "hyperosmotic environment (100 mM NaCl), 24 hours", "protocol": "Corneal epithelial cells primarily cultured from human corneal limbal cells were treated with 100 mM NaCl for exposure to a hyperosmotic environment, and treated with 0, 10, 25, 50, or 100 μg/mL of 1,5DQ for 24 hours, and the degree of apoptosis was measured by performing flow cytometry after annexin V (ANX) and propidium iodide (PI) staining."}, "[9]": {"conditions": "12-week-old NOD.B10.H2^b mice, 5 μL of 1,5DQ (50 μg/μL) instilled twice a day for 5 days, vs PBS (Example 1-2)"}}}
{"substance": "1,5-O-dicaffeoylquinic acid [1,5DQ]", "values": [{"measurement": "degree of corneal epithelial defects", "setting": "[1]; 5 μL of 1,5DQ (50 μg/μL) instilled in both eyes twice a day for 5 days", "result": "significantly reduced"}, {"measurement": "amount of tear secretion", "setting": "[1]; 5 μL of 1,5DQ (50 μg/μL) instilled twice a day for 5 days", "result": "significantly increased"}, {"measurement": "amount of tear secretion", "setting": "[2]; [9]", "result": "significantly increased"}, {"measurement": "degree of corneal epithelial defects", "setting": "[2]; [9]", "result": "significantly reduced"}, {"measurement": "amount of tear secretion, dependence on concentration", "setting": "[2]; Example 4, NOD.B10.H2^b mice, 5, 50 or 500 μg/μL 1,5DQ, 5 μL twice a day for 5 days", "result": "increasing trend depending on concentration"}, {"measurement": "corneal epithelial defects", "setting": "[2]; Example 4, NOD.B10.H2^b mice, 5 μL of 1,5DQ 50 μg/μL twice a day for 5 days", "result": "significantly reduced"}, {"measurement": "corneal epithelial defects", "setting": "[2]; Example 4, NOD.B10.H2^b mice, 5 μL of 1,5DQ 500 μg/μL twice a day for 5 days", "result": "significantly reduced"}, {"measurement": "amount of tear secretion, difference between the groups", "setting": "[2]; Example 4, NOD.B10.H2^b mice, PBS, 5, 50 or 500 μg/μL 1,5DQ, 5 μL twice a day for 5 days", "result": "no statistically significant difference"}, {"measurement": "TNF-α expression in the meibomian glands of the eyelids", "setting": "[3]", "result": "significantly reduced"}, {"measurement": "interleukin 1β expression, extraorbital lacrimal gland", "setting": "interleukin 1β (IL-1β)", "result": "significant reduced"}, {"measurement": "interleukin 1β expression, intraorbital lacrimal gland", "setting": "interleukin 1β (IL-1β)", "result": "significant reduced"}, {"measurement": "number of CD3-positive immune cells deposited in the lacrimal glands", "setting": "[4]", "result": "significantly decreased"}, {"measurement": "cell viability (MTT)", "setting": "[5]; hyperosmotic environment (100 mM NaCl), 10 μg/mL 1,5DQ", "result": "significantly increased"}, {"measurement": "cell viability (MTT)", "setting": "[5]; hyperosmotic environment (100 mM NaCl), 25 μg/mL 1,5DQ", "result": "significantly increased"}, {"measurement": "cell viability (MTT)", "setting": "[5]; hyperosmotic environment (100 mM NaCl), 50 μg/mL 1,5DQ", "result": "significantly increased"}, {"measurement": "cell viability (MTT)", "setting": "[5]; hyperosmotic environment (100 mM NaCl), 100 μg/mL 1,5DQ", "result": "significantly increased"}, {"measurement": "cell viability (MTT)", "setting": "[5]; normal corneal epithelial cells not treated with NaCl, 25 μg/mL 1,5DQ", "result": "significantly increased"}, {"measurement": "cell viability (MTT)", "setting": "[5]; normal corneal epithelial cells not treated with NaCl, 50 μg/mL 1,5DQ", "result": "significantly increased"}, {"measurement": "IL-6 expression in the meibomian glands of the eyelids", "setting": "IL-6", "result": "significantly reduced"}, {"measurement": "MMP-9 expression in the meibomian glands of the eyelids", "setting": "[6]", "result": "significantly reduced"}, {"measurement": "expression of SCD1 in the eyelids", "setting": "[7]", "result": "significantly increased"}, {"measurement": "area of the meibomian glands in the lower eyelid", "setting": "meibomian glands", "result": "significantly increased"}, {"measurement": "expression of SCD3 in the eyelids", "setting": "SCD3", "result": "significantly increased"}, {"measurement": "apoptosis level of the corneal epithelial cells", "setting": "[8]; 10 μg/mL 1,5DQ", "result": "significantly reduced"}, {"measurement": "apoptosis level of the corneal epithelial cells", "setting": "[8]; 25 μg/mL 1,5DQ", "result": "significantly reduced"}, {"measurement": "apoptosis level of the corneal epithelial cells", "setting": "[8]; 50 μg/mL 1,5DQ", "result": "significantly reduced"}]}
